Reference: patent US20110319603A1, “METHOD FOR FLU[…] PROTEIN” (OSAKA UNIVERSITY, priority 2009, published 2011)

What was measured:
[1] = test system: MBP-PYP expressed in HEK293T cells; assay: Labeling reaction with CATP in cultured cell, MBP-PYP (fluorescence microscopy); assay type: cell-based, Halorhodospira halophila; settings: CATP 5 μM, 30 minutes
Description: (§1) A plasmid was prepared in which a gene MBP-PYP obtained by fusing a maltose binding protein (MBP) with a PYP was introduced into the multicloning site of pcDNA3.1, which was a mammalian expression vector. Furthermore, in order to express a PYP on the cell surface, a plasmid was prepared in which a gene PYP-TM obtained by fusing a PYP with the transmembrane domain of a platelet-derived growth factor receptor (PDGFR) was introduced into the multicloning site of pcDNA3.1, which was a mammalian expression vector. HEK293T cells were transfected with these plasmids by using lipofectamine 2000. After transfection with the plasmids, the HEK293T cells were allowed to stand at 37° C. for 36 hours and then washed with a phosphoric acid buffer (PBS). A culture medium containing CATP (5 μM) was added thereto, which then was allowed to stand for 30 minutes.

[2] = test system: PYP-TM expressed on HEK293T cells; assay: Labeling reaction with CATP in cultured cell, PYP-TM (fluorescence microscopy); assay type: cell-based, Halorhodospira halophila; settings: CATP 5 μM, 30 minutes
Description: as §1

[3] = molecular target: T1, PYP (Halorhodospira halophila, UniProt P16113); assay: Reaction between PYP and FCTP, analyzed by SDS-PAGE (CBB-stained and fluorescent image); assay type: binding
T1 construct: His tag (with enterokinase cleavage site) (N, cleaved yes); made in house; host or cells: E. coli BL21 (DE3), pET-21b(+) (pET-PYP)
T1 sequence (P16113 1-125): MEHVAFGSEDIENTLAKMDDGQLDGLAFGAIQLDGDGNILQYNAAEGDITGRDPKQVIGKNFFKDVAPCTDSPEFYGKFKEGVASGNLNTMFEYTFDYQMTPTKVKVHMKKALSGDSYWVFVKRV
Description: In Tris buffer (20 mM Tris-HCl, 150 mM NaCl, 1 mM TCEP (pH 8.0)), 5 μM of PYP was reacted with 12.5 μM of compound FCTP at 37° C. for 24 hours. After completion of the reaction, the result was analyzed by SDS-PAGE (20% acrylamide separation gel). […] With reference to FIG. 1(b), similarly in the fluorescent image, fluorescence was observed.

[4] = test system: PYP-TM expressed on HEK293T cells; assay: Labeling reaction with FCTP in cultured cell (fluorescence microscopy); assay type: cell-based, Halorhodospira halophila; settings: FCTP 20 μM, 30 minutes
Description: In order to express a PYP on the cell surface, a plasmid was prepared in which a gene PYP-TM obtained by fusing a PYP with the transmembrane domain of a platelet-derived growth factor receptor (PDGFR) was introduced into the multicloning site of pcDNA3.1, which is a mammalian expression vector. HEK293T cells were transfected with this plasmid by using lipofectamine 2000. After transfection with the plasmid, the HEK293T cells were allowed to stand at 37° C. for 36 hours and then washed with a phosphoric acid buffer (PBS). A culture medium containing FCTP (20 μM) was added thereto, which then was allowed to stand for 30 minutes. […] With the fluorescence microscope having an excitation wavelength of 488 nm, the cells were observed using a fluorescent filter of 510 to 550 nm.

[5] = molecular target: T1, PYP; assay: Reaction of compound FCTP with PYP in HEK293T cell lysate, SDS-PAGE; assay type: binding
Description: In a HEK293T cell lysate dissolved in Tris buffer (20 mM Tris-HCl, 150 mM NaCl, 1 mM TCEP (pH 8.0)), 5 μM of PYP was reacted with 50 μM of compound FCTP at 37° C. for 30 minutes in the presence or absence of 10 mM MESNa. After completion of the reaction, it was analyzed by SDS-PAGE (20% acrylamide separation gel). […] On the other hand, the fluorescent band on the high molecular weight side disappeared upon addition of MESNa (10 mM), which was a type of thiol compound. It was confirmed that an addition of a certain amount of free thiol allowed labeling to be carried out specifically in the cell lysate.

[6] = molecular target: T1, PYP; assay: Fluorescent properties of FCTP (fluorescence and excitation spectra with and without PYP); settings: 8 μM compound, Tris buffer pH 8.0, 37° C.
Description: In order to examine the fluorescent properties of compound FCTP bound to the PYP, Tris buffer (20 mM Tris-HCl, 150 mM NaCl, 1 mM TCEP (pH 8.0)), the fluorescence and excitation spectra were measured at 37° C.

Structure (SMILES) | fluorescent labeling in cells in which MBP-PYP was not expressed [1] | fluorescent labeling in cells in which MBP-PYP was expressed ([1]; excitation 436 nm) | fluorescent labeling in cells where PYP-TM was not expressed [2] | fluorescent labeling in PYP-TM expressed cells ([2]; excitation 436 nm) | thioester bond between the PYP and compound upon addition of DTT ([3]; DTT (100 mM) added after labeling) | fluorescent labeling in cells where PYP-TM was not expressed [4] | fluorescent labeling in PYP-TM expressed cells ([4]; excitation 488 nm) | fluorescent labeling of PYP in cell lysate ([5]; 5 μM PYP, 50 μM compound, 37° C., 30 minutes) | fluorescent band in the high molecular weight range (non-specific labeling) in cell lysate ([5]; absence of MESNa) | fluorescent band on the high molecular weight side in cell lysate ([5]; addition of MESNa (10 mM)) | labeling of the PYP (slowly migrating band, fluorescence on gel) ([3]; 5 μM PYP, 12.5 μM compound, Tris buffer pH 8.0, 37° C., 24 hours) | fluorescence intensity of compound in the presence of PYP ([6]; 5 μM PYP, time-dependent) | fluorescence intensity of compound alone ([6]; no PYP, excitation at 500 nm)
[N-]=[N+]=NCCOCCOCCOCc1cc(O)cc2oc(=O)c(C(=O)Sc3ccccc3)cc12 [CATP] | not observed | observed | neither fluorescent labeling with FCTP nor that with CATP was observed | observed | hydrolyzed by a large excess of DTT | – | – | – | – | – | – | – | –
O=C(NCc1cn(COCCOCCOCc2cc(O)cc3oc(=O)c(C(=O)Sc4ccccc4)cc23)nn1)c1ccc(C(=O)O)c(-c2c3ccc(=O)cc-3oc3cc(O)ccc23)c1 [FCTP] | – | – | – | – | – | neither fluorescent labeling with FCTP nor that with CATP was observed | observed | fluorescence was observed in the vicinity of the PYP band | another fluorescent band was observed in the high molecular weight range | disappeared | able to label the PYP | increased in the presence of the PYP with the passage of time | very weak
